Values of other authors in patent US20100317640A1, “ANTIMICROBIAL ZINC PYRITHIONE COMPOSITION AND METHOD” (MICROBAN PRODUCTS COMPANY, priority 2009, published 2010).

Conditions: neutral pH

zinc pyrithione
solubility in water: 8 ppm
